Patent US7511144B2, “Reverse hydroxamic acid derivatives” (Kaken Pharmaceutical Co., Ltd., priority 2001, dated 2009)
pIC50: −log10 of the molar value. Read-outs that look alike come from different tables or passages of the source.

Tests used:
Assay type in all cases: biochemical
TACE = biological target: T1, TACE (Homo sapiens, UniProt P78536); assay: TACE inhibition experiment (in vitro)
T1 construct: made in house; host or cells: mammalian cells or insect cells

Human MMP1 = biological target: T2, Human MMP1 (Homo sapiens, UniProt P03956); assay: MMP1 inhibition experiment; settings: read-out: IC50 value MMP-1
T2 construct: purchased Calbiochem 444208
T2 sequence (P03956 100-469): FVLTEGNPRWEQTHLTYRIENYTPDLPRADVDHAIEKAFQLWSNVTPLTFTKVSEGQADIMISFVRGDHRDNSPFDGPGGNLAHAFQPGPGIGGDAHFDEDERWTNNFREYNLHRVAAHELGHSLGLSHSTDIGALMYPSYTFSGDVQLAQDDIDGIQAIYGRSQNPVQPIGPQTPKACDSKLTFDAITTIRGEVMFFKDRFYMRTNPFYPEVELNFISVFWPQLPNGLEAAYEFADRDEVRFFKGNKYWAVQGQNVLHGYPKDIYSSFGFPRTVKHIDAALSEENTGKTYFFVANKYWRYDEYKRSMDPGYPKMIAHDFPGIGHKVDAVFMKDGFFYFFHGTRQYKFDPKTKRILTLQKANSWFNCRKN

Human MMP3 = biological target: T3, Human MMP3 (Homo sapiens, UniProt P08254); assay: MMP3 inhibition experiment; settings: concentration required for 50% inhibition of enzyme activity; read-out: IC50 value MMP-3
T3 construct: purchased Calbiochem 444217
Protocol: (§1) MMP inhibition experiment may be carried out using a fluorescent synthetic substrate according to, for example, the methods of Bickett et al. (D. Mark Bickett et al., Anal. Biochem., 1993, 212, 58-64) and Nagase et al. (H. Nagase et al., J. Biol. Chem., 1994, 269, 20952-20957). The methods of inhibition experiments carried out for various MMPs are described below.
Human MMP3 (Calbiochem #444217) in 90 μL (5 ng) prepared in the assay buffer A was added to 90 μL of 20 μM fluorescent substrate NFF-3(MOCAc-Arg-Pro-Lys-Pro-Val-Glu-Nva-Trp-Arg-Lys(Dnp)-NH2, Peptide Institute, Inc., #3168-v) prepared in the assay buffer B, followed by reaction for 5 hours at 37° C.

Human MMP9 = biological target: T4, Human MMP9 (Homo sapiens, UniProt P14780); assay: MMP9 inhibition experiment; settings: read-out: IC50 value MMP-9
T4 construct: purchased Calbiochem 444231

Human MMP13 = biological target: T5, Human MMP13 (Homo sapiens, UniProt P45452); assay: MMP13 inhibition experiment
T5 construct: purchased Chemicon CC068

Human MMP14 = biological target: T6, Human MMP14 (Homo sapiens, UniProt P50281); assay: MMP14 inhibition experiment; settings: concentration required for 50% inhibition of enzyme activity; read-out: IC50 value MMP-14
T6 construct: purchased Biogenesis or Calbiochem 5980-1461 or 475935
Protocol: as §1
Human MMP14 (Biogenesis #5980-1461 or Calbiochem #475935) in amount of 90 μL (4 ng) prepared in the assay buffer A was added to 90 μL of 20 μM fluorescent substrate (Dnp-Pro-Cha-Gly-Cys(Me)-His-Ala-Lys(Nma)-NH2) prepared in the assay buffer B, followed by reaction for 5 hours at 37° C.

Human MMP17 = biological target: T7, Human MMP17 (Homo sapiens, UniProt Q9ULZ9); assay: MMP17 inhibition test; settings: concentration required for 50% inhibition of enzyme activity; read-out: IC50 value MMP-17
T7 construct: purchased Calbiochem 475940
T7 sequence (Q9ULZ9 126-300 limits assumed): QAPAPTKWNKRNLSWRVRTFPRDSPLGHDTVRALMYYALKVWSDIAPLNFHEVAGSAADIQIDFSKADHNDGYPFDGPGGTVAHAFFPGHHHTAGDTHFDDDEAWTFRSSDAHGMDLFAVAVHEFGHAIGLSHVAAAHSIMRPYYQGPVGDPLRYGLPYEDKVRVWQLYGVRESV

Human MMP2 = biological target: T8, Human MMP2 (Homo sapiens, UniProt P08253); assay: MMP2 inhibition experiment; settings: concentration required for 50% inhibition of enzyme activity; read-out: IC50 value MMP-2
T8 construct: purchased Calbiochem 444213
T8 sequence (P08253 110-660): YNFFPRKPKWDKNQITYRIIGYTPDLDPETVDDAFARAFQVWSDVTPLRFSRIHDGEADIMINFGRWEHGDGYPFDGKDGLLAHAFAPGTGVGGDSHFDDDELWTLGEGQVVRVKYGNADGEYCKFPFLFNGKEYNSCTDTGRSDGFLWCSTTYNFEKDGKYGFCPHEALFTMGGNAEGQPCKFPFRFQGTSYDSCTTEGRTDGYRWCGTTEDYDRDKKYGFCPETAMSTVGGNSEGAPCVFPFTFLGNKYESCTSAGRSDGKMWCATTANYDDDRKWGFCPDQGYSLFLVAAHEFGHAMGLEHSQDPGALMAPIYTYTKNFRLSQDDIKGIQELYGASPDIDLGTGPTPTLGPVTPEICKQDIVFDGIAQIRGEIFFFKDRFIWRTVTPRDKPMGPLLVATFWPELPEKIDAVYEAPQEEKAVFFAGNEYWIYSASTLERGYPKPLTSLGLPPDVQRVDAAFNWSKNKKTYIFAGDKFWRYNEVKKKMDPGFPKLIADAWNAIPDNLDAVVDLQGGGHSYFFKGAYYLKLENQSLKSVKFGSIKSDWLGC

[1] = concentration required for 50% inhibition of enzyme activity, read-out: IC50 value MMP-13
[2] = concentration required for 50% inhibition of enzyme activity

T4 sequence (P14780 107-707 limits assumed): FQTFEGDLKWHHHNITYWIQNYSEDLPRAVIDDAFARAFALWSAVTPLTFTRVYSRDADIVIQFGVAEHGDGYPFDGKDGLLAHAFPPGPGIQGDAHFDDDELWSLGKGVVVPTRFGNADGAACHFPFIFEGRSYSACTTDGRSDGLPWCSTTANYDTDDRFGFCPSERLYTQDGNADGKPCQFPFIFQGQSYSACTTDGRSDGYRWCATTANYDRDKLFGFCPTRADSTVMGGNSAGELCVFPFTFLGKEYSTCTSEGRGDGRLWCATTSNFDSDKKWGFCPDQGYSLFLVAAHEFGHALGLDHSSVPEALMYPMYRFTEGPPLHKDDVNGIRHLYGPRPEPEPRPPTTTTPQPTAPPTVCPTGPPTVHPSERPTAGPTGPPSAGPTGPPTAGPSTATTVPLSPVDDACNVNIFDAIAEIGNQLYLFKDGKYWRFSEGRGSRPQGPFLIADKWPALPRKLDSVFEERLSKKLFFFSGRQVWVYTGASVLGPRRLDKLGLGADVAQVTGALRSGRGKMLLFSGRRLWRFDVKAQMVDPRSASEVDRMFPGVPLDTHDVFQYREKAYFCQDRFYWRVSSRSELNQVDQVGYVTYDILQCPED
T3 sequence (P08254 100-272 limits assumed): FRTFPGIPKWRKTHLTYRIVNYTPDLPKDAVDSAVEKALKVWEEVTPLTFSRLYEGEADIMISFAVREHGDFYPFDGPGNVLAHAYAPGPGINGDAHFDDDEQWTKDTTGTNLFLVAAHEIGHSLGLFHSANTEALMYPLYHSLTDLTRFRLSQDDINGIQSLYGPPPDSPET
T1 sequence (P78536 215-824): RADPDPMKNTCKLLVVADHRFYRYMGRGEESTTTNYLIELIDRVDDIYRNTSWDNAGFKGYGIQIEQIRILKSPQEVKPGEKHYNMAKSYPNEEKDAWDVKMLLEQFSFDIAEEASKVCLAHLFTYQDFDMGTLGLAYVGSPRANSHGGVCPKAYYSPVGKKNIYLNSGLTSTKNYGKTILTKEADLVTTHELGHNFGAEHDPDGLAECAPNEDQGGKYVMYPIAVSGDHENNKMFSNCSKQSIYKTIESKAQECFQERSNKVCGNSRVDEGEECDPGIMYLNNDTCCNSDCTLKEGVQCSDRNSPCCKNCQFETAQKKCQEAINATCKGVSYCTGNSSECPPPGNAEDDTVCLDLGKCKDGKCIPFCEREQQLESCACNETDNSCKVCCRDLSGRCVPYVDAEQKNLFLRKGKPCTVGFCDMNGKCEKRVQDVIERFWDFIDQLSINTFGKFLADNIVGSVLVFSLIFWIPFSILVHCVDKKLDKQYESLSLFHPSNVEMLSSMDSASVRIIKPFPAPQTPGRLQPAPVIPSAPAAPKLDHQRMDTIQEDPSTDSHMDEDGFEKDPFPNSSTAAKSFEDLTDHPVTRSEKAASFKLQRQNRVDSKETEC

Row | pIC50 (TACE) | pIC50 (Human MMP1) | pIC50 (Human MMP3) | pIC50 (Human MMP9) | pIC50 (Human MMP13; [1]) | pIC50 (Human MMP14) | pIC50 (Human MMP17) | pIC50 (TACE; [2]) | pIC50 (Human MMP2) | pIC50 (Human MMP9; [2]) | pIC50 (Human MMP1; [2]) | pIC50 (Human MMP13; IC50 value MMP-13, concentration required for 50% inhibition of enzyme activity) | SMILES
1 | 7.10 | < 4.00 | 5.70 | 4.46 | 5.66 | 4.40 | 5.70 | – | – | – | – | – | COc1cc(C)cc(COc2ccc(S(=O)(=O)CC(C3CCC4(CC3)OCCO4)N(O)C=O)cc2)c1 (stereo not drawn) [Example I-8, N-[1-(1,4-Dioxaspiro[4.5]dec-8-yl)-2-{4-(3-methoxy-5-methylbenzyloxy)benzenesulfonyl}ethyl]-N-hydroxyformamide]
2 | – | 4.35 | 5.92 | – | 5.30 | 4.64 | 5.96 | 7.22 | 5.22 | 4.92 | – | – | Cc1cc(COc2ccc(S(=O)(=O)CC(CC3CCC4(CC3)OCCO4)N(O)C=O)cc2)c2ccccc2n1 (stereo not drawn) [Example I-10]
3 | – | 4.35 | 5.70 | – | 5.15 | 4.46 | 6.22 | 7.70 | 4.52 | 4.55 | – | – | Cc1cc(COc2ccc(S(=O)(=O)CC(C3CCC(=O)CC3)N(O)C=O)cc2)c2ccccc2n1 (stereo not drawn) [Example I-11, N-Hydroxy-N-{2-[4-(2-methylquinolin-4-ylmethoxy)benzenesulfonyl]-1-(4-oxocyclohexyl)ethyl}formamide]
4 | 7.15 | 4.35 | 5.52 | 4.55 | 5.00 | 4.46 | 5.70 | – | 4.52 | – | – | – | CON=C1CCC(C(CS(=O)(=O)c2ccc(OCc3cc(C)nc4ccccc34)cc2)N(O)C=O)CC1 (stereo not drawn) [Example I-12]
5 | 7.68 | 4.22 | 5.52 | 4.55 | 5.00 | 4.40 | 6.15 | – | 4.40 | – | – | – | Cc1cc(COc2ccc(S(=O)(=O)CC(C3CCC(=NOC=O)CC3)N(O)C=O)cc2)c2ccccc2n1 (stereo not drawn) [Example I-13]
6 | 8.15 | < 4.00 | 5.00 | < 4.00 | 4.40 | < 4.00 | 5.26 | – | 4.40 | – | – | – | Cc1cc(COc2ccc(S(=O)(=O)CC(C(F)=C3CCOCC3)N(O)C=O)cc2)c2ccccc2n1 (stereo not drawn) [Example I-16]
7 | 8.20 | < 4.00 | 4.70 | < 4.00 | 4.15 | < 4.00 | 5.15 | – | < 4.00 | – | – | – | Cc1cc(COc2ccc(S(=O)(=O)CC(C(Cl)=C3CCOCC3)N(O)C=O)cc2)c2ccccc2n1 (stereo not drawn) [Example I-19]
8 | 8.30 | 4.22 | 5.52 | 4.30 | 4.82 | 4.48 | 5.68 | – | 4.52 | – | – | – | Cc1cc(COc2ccc(S(=O)(=O)CC(c3ccccc3C)N(O)C=O)cc2)c2ccccc2n1 (stereo not drawn) [Example I-23]
9 | – | – | 7.10 | – | 6.70 | 5.10 | 7.70 | 8.00 | – | 5.00 | 4.70 | – | Cc1cc(COc2ccc(S(=O)(=O)N3CCSC(C)(C)[C@@H]3C(=O)NO)cc2)cc(C)n1 [compound 1, reference compound]
10 | – | – | 7.40 | – | 8.40 | 7.00 | 7.68 | 8.30 | – | 7.70 | 5.52 | – | C[C@@H]1O[C@@H](CO)CN(S(=O)(=O)c2ccc(OCc3ccc(F)cc3)cc2)[C@H]1C(=O)NO [compound 2, reference compound]
11 | 7.46 | 7.35 | 7.52 | 7.52 | – | 7.15 | 7.89 | – | – | – | – | 8.00 | CC[C@H](C)[C@H](NC(=O)[C@H](CC(C)C)[C@H](C(C)C)N(O)C=O)C(=O)Nc1ccccn1 [compound 3, (2R,3S)-3-(formylhydroxyamino)-2-(2-methyl-1-propyl)-4-methylpentanoic acid [(1S,2S)-2-methyl-1-(pyridin-2-ylcarbamoyl)-1-butyl]amide, reference compound]
